Test results taken from patent US20100196355A1, “Immunophilin Ligands and Methods for Modulating Immunophilin and Calcium Channel Activity” (Wyeth, priority 2007, published 2010).
“Also recorded” adds a separate entry of the source. Read-outs that look alike come from different tables or passages of the source.

Tests used:
His6-tagged FKBP52 = target: T1, His6-tagged FKBP52 (Homo sapiens, UniProt Q02790); assay: [3H]-FK506 binding on Ni-chelated FLASH plate
T1 construct: made in house
T1 sequence (Q02790 1-459): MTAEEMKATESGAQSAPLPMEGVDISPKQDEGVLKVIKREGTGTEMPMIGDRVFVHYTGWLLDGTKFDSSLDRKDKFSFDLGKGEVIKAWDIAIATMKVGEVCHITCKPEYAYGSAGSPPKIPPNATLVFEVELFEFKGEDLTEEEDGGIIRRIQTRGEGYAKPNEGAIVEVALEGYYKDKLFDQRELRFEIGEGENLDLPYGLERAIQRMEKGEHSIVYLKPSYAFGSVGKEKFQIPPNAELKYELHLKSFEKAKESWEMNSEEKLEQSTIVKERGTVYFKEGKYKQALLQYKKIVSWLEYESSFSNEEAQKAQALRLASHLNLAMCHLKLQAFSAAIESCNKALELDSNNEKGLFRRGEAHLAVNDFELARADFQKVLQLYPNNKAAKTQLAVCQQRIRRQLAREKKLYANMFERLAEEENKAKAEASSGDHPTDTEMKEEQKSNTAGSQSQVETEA
Experimental: Reactions were carried out in triplicate at 25° C. for 30 min. Kd were calculated using methods described by Carreras (Anal. Biochem. 298, 57-61 (2001)).

F-11 cells = assay: Neurite outgrowth of F-11 cells (neurofilament ELISA); type: cell-based, rat and mouse hybrid
Experimental: Cells were fixed with 4% paraformaldehyde for 30 min at 37° C. Nonspecific binding was blocked by incubating with PBS containing 0.3% Triton X-100 and 5% fetal bovine serum (FBS) for 45 min. […] After washing, a peroxidase-conjugated anti-mouse secondary antibody (1:1000) was applied for 2 h. After three washes, the peroxidase substrate K-BlueMax was added to the cultures and incubated for 10 min. Optical density was determined at 650 nm.

FKBP52 = target: T2, FKBP52 (Mus musculus, UniProt P30416); assay: Affinity precipitation from F-11 cell lysate, FT-ICR-MS and Western analysis; type: binding, rat and mouse hybrid
T2 construct: endogenous in cells; host or cells: F-11 cells (rat DRG x mouse neuroblastoma hybrid), lysate
Experimental: (§1) Briefly, the amino group of amino-phenyl-butyric acid (1200 mg) was protected with an allyloxycarbonyl group by treating with diallyldicarbonate ([…]) in dioxane:water (3:1; 50 ml) for 3 h at room temperature.
(§2) The reaction was quenched with methanol and the ester product was purified by HPLC with a purity of 99% and characterized by MS and NMR. After removing the allyloxycarbonyl group of the ester product (40 mg) by treatment with Pd(PPh3)4 (2 mg) and dimedone (7 mg) in THF (1.2 ml), the amino group of the product was linked to Affigel-10 matrix (4 ml) in the presence of 2% pyridine in THF.
(§3) F11 cells were grown in culture medium, DMEM supplemented with 10% FBS and 1% pen/Strep, in 75 cm^2 vented flasks in 37° C. incubator with 5% CO2. Cells were harvested at 80% confluence and washed with PBS buffer. Lysis buffer (6 ml; 50 mM Tris, pH 7.4, 250 mM NaCl, 5 mM EDTA, 50 mM NaF, 1 mM Na3VO4, 1% Nonidet P40 (NP40), 0.1% mercaptoethanol and 2% protease inhibitor cocktails) was added to 10^9 cells. Cells were broken by forcing them through a 26-gauge needle, and S-100 supernatant was collected after 15 min centrifugation at 4° C. […] After washes with lysis buffer (2 ml) and then PBS (2 ml), the beads were analyzed on 4-20% SDS-PAGE gel. […] The protein bands (FIG. 3) were cut out and digested with trypsin (0.3 ng) in digestion buffer (30 μl; 0.2% NH4HCO3) at 30° C. overnight. The resulting peptides were purified on C18-resin and submitted for FT-ICR-MS analysis. The FT-ICR-MS data was manually edited and used to search protein databases. The results are shown in FIG. 4 and have the following scores. FK506-binding protein (FKBP52) (P30416, score: 94, expect: 9.6e-05); MS Data of the 59 kDa band: 2753.35; 1710.94; 2215.13; 2363.15; 1298.71; 1215.59; 1000.51; 1000.46; 1790.93; 1381.70; 2746.36; 1316.71; and 1171.60. Voltage dependent L-type calcium channel β1 subunit (Q8R3Z5-03-00-00, score: 133, expect: 1e-09); MS Data of the 52 kDa band: 651.38; 663.39; 779.54; 853.55; 1014.50; 1347.75; 1217.78; 1346.67; 1297.75; 1231.77; 877.52; 853.47; 919.48; 1014.56; 1041.63; 1217.74; 1231.74; 1296.84; 869.58 (major).
(§4) In another experiment, F11 cells were grown in culture medium, DMEM supplemented with 10% FBS and 1% Pen/Strep, in 75 cm^2 vented flasks in a 37° C. incubator with 5% CO2. Cells were harvested at 80% confluence and washed with PBS buffer. To 3×10^8 cells, lysis buffer (2 ml; 50 mM Tris, pH 7.4, 250 mM NaCl, 5 mM EDTA, 50 mM NaF, 1 mM Na3VO4, 1% Nonidet P40, 0.1% mercaptoethanol and 2% protease inhibitor cocktails) was added, and its S-100 supernatant was collected after 15 min centrifugation at 4° C. […] After wash with lysis buffer (2 ml) and then PBS buffer (2 ml), beads were analyzed by SDS-PAGE. […]

[1] = target: T3, β1 subunit (CACNB1) of the voltage gated L-type calcium channel (Mus musculus, UniProt Q8R3Z5); assay: as above; type: binding, rat and mouse hybrid
T3 construct: endogenous in cells; host or cells: F-11 cells (rat DRG x mouse neuroblastoma hybrid), lysate
Experimental: as §1, §2, §3, §4

[2] = tested on: transient mid-cerebral artery occlusion model for ischemic stroke; conditions: cited from earlier work

T3 sequence (Q8R3Z5 1-479 isoform Q8R3Z5-3): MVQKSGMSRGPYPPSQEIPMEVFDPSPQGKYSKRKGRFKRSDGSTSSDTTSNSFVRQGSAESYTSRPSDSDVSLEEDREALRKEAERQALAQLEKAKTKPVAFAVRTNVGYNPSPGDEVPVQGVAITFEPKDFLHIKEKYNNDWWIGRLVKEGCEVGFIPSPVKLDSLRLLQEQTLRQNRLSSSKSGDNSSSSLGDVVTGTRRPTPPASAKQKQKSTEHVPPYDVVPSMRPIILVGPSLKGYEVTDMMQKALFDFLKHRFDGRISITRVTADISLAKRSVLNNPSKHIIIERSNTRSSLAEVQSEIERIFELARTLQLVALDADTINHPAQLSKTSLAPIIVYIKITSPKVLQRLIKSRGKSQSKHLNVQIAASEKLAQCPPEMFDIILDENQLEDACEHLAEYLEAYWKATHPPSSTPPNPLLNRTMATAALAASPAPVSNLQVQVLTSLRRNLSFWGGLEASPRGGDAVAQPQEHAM
T2 sequence (P30416 whole entry): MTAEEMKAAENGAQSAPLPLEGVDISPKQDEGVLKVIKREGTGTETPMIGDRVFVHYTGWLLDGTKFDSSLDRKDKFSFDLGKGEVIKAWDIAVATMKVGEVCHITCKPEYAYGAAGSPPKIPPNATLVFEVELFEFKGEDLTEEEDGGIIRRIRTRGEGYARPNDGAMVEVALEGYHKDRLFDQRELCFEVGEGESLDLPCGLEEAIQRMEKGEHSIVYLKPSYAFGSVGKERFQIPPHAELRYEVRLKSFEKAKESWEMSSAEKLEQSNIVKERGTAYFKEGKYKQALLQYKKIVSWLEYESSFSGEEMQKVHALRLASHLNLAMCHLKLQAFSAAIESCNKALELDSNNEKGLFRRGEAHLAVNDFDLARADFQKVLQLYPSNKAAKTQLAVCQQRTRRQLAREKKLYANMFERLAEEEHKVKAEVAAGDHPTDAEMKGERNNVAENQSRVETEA

| SMILES | Kd (His6-tagged FKBP52) | neurite outgrowth in F-11 cells (F-11 cells) | neurofilament content, higher than 50 μM or no compound control (F-11 cells; 5 μM, 96 hrs) | FKBP52 in affinity bead fraction (FKBP52) | L-type calcium channel β1 subunit (CACNB1) in affinity bead fraction [1] | reduction of infarct volume ([2]; 10 mg/kg) | reduction of infarct volume ([2]; 30 mg/kg) |
| --- | --- | --- | --- | --- | --- | --- | --- |
| CO[C@H]1C[C@@H]2CC[C@@H](C)[C@@](O)(O2)C(=O)C(=O)N2CCCCC2C(=O)O[C@H]([C@H](C)C[C@@H]2CC[C@@H](O)[C@H](OC)C2)CC(=O)[C@H](C)/C=C(\C)[C@@H](O)[C@@H](OC)C(=O)[C@H](C)C[C@H](C)C2C=C[C@H](/C=C/1C)ON2c1ccccc1 (stereo partly shown) [Rapamycin analogue I, 9,27-dihydroxy-3-{2-[4-hydroxy-3-methoxycyclohexyl]-1-methylethyl}-10,21-dimethoxy-6,8,12,14,20,26-hexamethyl-37-phenyl-4,9,10,12,13,14,15,18,21,22,23,24,25,26,27,32,33,34,34a-nonadecahydro-3H-23,27-epoxy-18,15-(epoxyimino)pyrido[2,1-c][1,4]oxazacyclohentriacontine-1,5,11,28,29(6H, 31H)-pentone] | 0.55 ± 0.05 nM | promote neurite outgrowth | 4-5 fold | major targets; also recorded: detected | major targets; also recorded: detected | – | – |
| CO[C@H]1C[C@@H]2CC[C@@H](C)[C@@](O)(O2)C(=O)C(=O)N2CCCCC2C(=O)O[C@H]([C@H](C)C[C@@H]2CC[C@@H](O)[C@H](OC)C2)CC(=O)[C@H](C)/C=C(\C)[C@@H](O)[C@@H](OC)C(=O)[C@H](C)C[C@H](C)C2CC[C@H](/C=C/1C)ON2c1ccccc1 (stereo partly shown) [Rapamycin analogue II, 9,27-dihydroxy-3-{2-[4-hydroxy-3-methoxycyclohexyl]-1-methylethyl}-10,21-dimethoxy-6,8,12,14,20,26-hexamethyl-37-phenyl-4,9,10,12,13,14,15,16,17,18,21,22,23,24,25,26,27,32,33,34,34a-henicosahydro-3H-23,27-epoxy-18,15-(epoxyimino)pyrido[2,1-c][1,4]oxazacyclohentriacontine-1,5,11,28,29(6H, 31H)-pentone] | 0.48 ± 0.04 nM | – | – | major targets | major targets | 24% | 23% |
